# Earlier results as cited in patent US9167842B2, “Functional food preparation and use thereof” (priority 2010, dated 2015).
# Like-named read-outs stand apart in the source and are kept apart here.
# How the values were obtained:
# [1] = oral, 32 hypercholesterolemic patients, three months
# [2] = daily folic acid supplement
Structure (SMILES),reduction of LDL cholesterol [1] [%],reduction of plasma cholesterol [1] [%],reduction of triglycerides [1] [%],reduction of homocysteine [2],reduction of homocysteine ([2]; dose doubled)
COc1ccc2cc3[n+](cc2c1OC)CCc1cc2c(cc1-3)OCO2 [berberine],25,29,35,,
Nc1nc2ncc(CNc3ccc(C(=O)N[C@@H](CCC(=O)O)C(=O)O)cc3)nc2c(=O)[nH]1 [folic acid],,,,about 60%,about 90%
